Patent publication US20110173718A1, “HERBICIDE TOLERANT PLANTS” (SYNGENTA CROP PROTECTION, INC., priority 2008, published 2011)

Test system: HST in spinach chloroplast extract
Test: HST assay (TLC, MFBQ formed), spinach chloroplast extract
Format: biochemical
Conditions: 25 ppm; TLC, estimated amount of MFBQ formed, relative to controls
Description: HST enzyme preparations for assay are also prepared directly from fresh plant material. For example HST enzyme preparations are from spinach. In the first step intact spinach chloroplasts are prepared from two lots of 500 g of fresh baby spinach leaves (e.g from the salad section of the local supermarket). Prepacked spinach is usually already washed, but if buying loose leaves these must be rinsed in water before proceeding. Stalks, large leaves and mid-ribs are removed. Each 500 g lot of leaves is added to 1.5 l of ‘Grinding medium’ in a 2 L plastic beaker. Grinding medium is cold (4° C.) 50 mM Tricine/NaOH buffer at pH 7.1 containing 330 mM glucose, 2 mM sodium isoascorbate, 5 mM MgCl2 and 0.1% bovine serum albumen The beaker, kept at 4° C., is placed under a Polytron 6000 blender, fitted with a 1.5″cutting probe and the mixture blended in short bursts of 5-8 sec up to 8-10K rpm until all the leaves are macerated. The homogenate is filtered into a 5 L beaker (embedded in an ice bucket) through four layers of muslin, and two layers of 50μ mesh nylon cloth. The filtrate is transferred to 250 ml buckets of a Beckman GS-6 centrifuge and spun at […] (3020 rpm) for 2 min at 4° C. The supernatant is drained away and discarded to leave a sediment of chloroplasts. Chloroplasts are resuspended in a few ml of cold resuspension medium by gentle swirling and gentle use of a quill brush soaked in resuspension medium. Resuspension medium is 50 mM Hepes/KOH pH 7.8 containing 330 mM sorbitol, 2 mM EDTA, 5 mM KH2PO4, 2 mM MgCl2 and 0.1% bovine serum albumen at 4° C. The chloroplasts are resuspended in 5-10 ml of resuspension buffer, recentrifuged down and resuspended again in order to wash them. The chloroplasts are then once again centrifuged down and then broken by resuspension in about 5 ml of 50 mM Tricine-NaOH pH 7.8 to a protein concentration of about 40 mg/ml. The solution is stored frozen at −80° C. in aliquots. This resuspension is defrosted and used directly in HST activity assays. Alternatively, chloroplasts are prepared resuspended in 50 mM Tris/HCl buffer at pH 7.8 containing 330 mM sorbitol (alternative resuspension buffer) and layered on top of a percol gradient (comprising the same buffer containing 45% percol), spun down, the intact chloroplast fraction taken and washed 2 or 3 times in the alternative resuspension buffer and then spun down again, resuspended in breaking buffer (without sorbitol), flash frozen and stored in aliquots at −80° C.
Prenyltransferase (HST) activities are measured by determining the prenylation rates of [U—^14C]homogentisate using farnesyl diphosphate (FDP) as prenyl donor. ^14C homogentisate is prepared from ^14C tyrosine using L amino acid oxidase and HPPD. For inhibitor testing, compounds are dissolved in dimethylsulfoxide (DMSO). DMSO added at up to 2% v/v has no effect on assays. Control assays contain DMSO at the same concentration as in inhibitor containing assays.
Assays using spinach chloroplast extracts (100 μl final volume) contain up to 2 mg of chloroplast protein, 50 mM Tricine-NaOH pH 8.5, 50 mM MgCl2, 200 μM farnesyl diphosphate (FDP) and 26 μM ^14C-homogentisate (167 dpm/pmol). Assays are run for about an hour at 28° C. […] Lipophilic reactions products are extracted and analyzed essentially as described in the literature.
Using the above assays percentage inhibition of the amount of MFBQ formed at a range of doses of inhibitors relative to the control amount obtained with no inhibitor present is reported (Table 1). The better inhibitors give greater percentage inhibition at lower doses.

Row | Structure (SMILES) | Spinach chloroplast extract % I at 25 ppm [%]
1 | Oc1c(Cl)c(F)nc(F)c1Cl [Compound 1.1, haloxydine] | 70
2 | O=c1c(-c2c(F)ccc(Br)c2Cl)c(O)c2nccnc2n1CC(F)F [Compound 2.8] | 70
3 | O=c1c(-c2cc(C(F)(F)F)ccc2Cl)c(O)c2nccnc2n1CC(F)F [Compound 2.9] | 90
4 | O=c1c(-c2c(F)ccc(F)c2Cl)c(O)c2cccnc2n1CC(F)F [Compound 2.13] | 40
5 | O=c1c(-c2c(Cl)ccc(Cl)c2Cl)c(O)c2nccnc2n1CC(F)F [Compound 2.14] | 80

Same assay, conditions: final concentration 500 ppm

Row | Structure (SMILES) | inhibition of the HST reaction
6 | Oc1c(Cl)c(F)nc(F)c1Cl [Compound 1.1, haloxydine] | completely inhibit
